Measured values as given in the supplement of paper PMC10307832.

Tests used:
Test in all cases: relative viability (nuclei count vs DMSO), 5 days (fraction); higher = more cells survive
[1] = test system: NCI-H520
Procedure, shortened: (§1)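 Relative viability divides the nuclei count in treated wells by that in vehicle wells. Lung cancer cell lines were seeded in 1536-well plates, dosed by pin tool the next day, and fixed and stained after 5 days in one step with final 0.05% Triton X-100, 1% formaldehyde and 1 ug/ml Hoechst. Dosing was a single drug or a fixed anchor-drug dose plus five library-drug doses (not always all listed) in √10 steps, and values are medians of duplicate plates imaged at 4×.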

[2] = test system: NCI-H647
Procedure, shortened: as §1

[3] = test system: NCI-H2170
Procedure, shortened: as §1

[4] = test system: NCI-H460
Procedure, shortened: as §1

[5] = test system: HOP-62
Procedure, shortened: as §1

[6] = test system: NCI-H727
Procedure, shortened: as §1

[7] = test system: NCI-H2405
Procedure, shortened: as §1

[8] = test system: NCI-H2023
Procedure, shortened: as §1

[9] = test system: ChaGo-K-1
Procedure, shortened: as §1

[10] = test system: NCI-H441
Procedure, shortened: as §1

[11] = test system: NCI-H1793
Procedure, shortened: as §1

[12] = test system: NCI-H1437
Procedure, shortened: as §1

[13] = test system: HCC-44
Procedure, shortened: as §1

[14] = test system: LOU-NH91
Procedure, shortened: as §1

[15] = test system: EMC-BAC-2
Procedure, shortened: as §1

[16] = test system: SW 1573
Procedure, shortened: as §1

[17] = test system: NCI-H650
Procedure, shortened: as §1

[18] = test system: NCI-H23
Procedure, shortened: as §1

[19] = test system: EPLC-272H
Procedure, shortened: as §1

[20] = test system: NCI-H2009
Procedure, shortened: as §1

[21] = test system: LCLC-103H
Procedure, shortened: as §1

[22] = test system: NCI-H2347
Procedure, shortened: as §1

[23] = test system: NCI-H2126
Procedure, shortened: as §1

O=c1[nH]c2ccccc2n1C1CCN(CCCC(c2ccc(F)cc2)c2ccc(F)cc2)CC1 [Pimozide] + CC(=O)c1c(C)c2cnc(Nc3ccc(N4CCNCC4)cn3)nc2n(C2CCCC2)c1=O [Palbociclib] (partner 0.5 µM) was tested, and the relative viability ([1]; first compound 0.08 µM) was 0.265, the relative viability ([1]; first compound 0.253 µM) was 0.22 and the relative viability ([1]; first compound 0.8 µM) was 0.191. For the same molecule, the relative viability ([1]; first compound 2.53 µM) was 0.217, the relative viability ([1]; first compound 8 µM) was 0.213 and the relative viability ([2]; first compound 0.08 µM) was 0.404. The relative viability ([2]; first compound 0.253 µM) was 0.509, the relative viability ([2]; first compound 0.8 µM) was 0.384 and the relative viability ([2]; first compound 2.53 µM) was 0.32. The relative viability ([2]; first compound 8 µM) was 0.313, the relative viability ([3]; first compound 0.08 µM) was 0.384 and the relative viability ([3]; first compound 0.253 µM) was 0.363. The relative viability ([3]; first compound 0.8 µM) was 0.365, the relative viability ([3]; first compound 2.53 µM) was 0.358 and the relative viability ([3]; first compound 8 µM) was 0.369. The relative viability ([4]; first compound 0.08 µM) was 0.137, the relative viability ([4]; first compound 0.253 µM) was 0.188 and the relative viability ([4]; first compound 0.8 µM) was 0.139. The relative viability ([4]; first compound 2.53 µM) was 0.221, the relative viability ([4]; first compound 8 µM) was 0.184 and the relative viability ([5]; first compound 0.08 µM) was 0.412. For the same molecule, the relative viability ([5]; first compound 0.253 µM) was 0.391, the relative viability ([5]; first compound 2.53 µM) was 0.361 and the relative viability ([5]; first compound 8 µM) was 0.442. It also gave a relative viability ([6]; first compound 0.08 µM) of 0.544, a relative viability ([6]; first compound 0.253 µM) of 0.661 and a relative viability ([6]; first compound 0.8 µM) of 0.696. It also gave a relative viability ([6]; first compound 2.53 µM) of 0.676, a relative viability ([6]; first compound 8 µM) of 0.609 and a relative viability ([7]; first compound 0.08 µM) of 0.522. It also gave a relative viability ([7]; first compound 0.253 µM) of 0.516, a relative viability ([7]; first compound 0.8 µM) of 0.478 and a relative viability ([7]; first compound 2.53 µM) of 0.456. The relative viability ([7]; first compound 8 µM) was 0.33, the relative viability ([8]; first compound 0.08 µM) was 0.337 and the relative viability ([8]; first compound 0.253 µM) was 0.39. It also gave a relative viability ([8]; first compound 0.8 µM) of 0.341, a relative viability ([8]; first compound 2.53 µM) of 0.333 and a relative viability ([8]; first compound 8 µM) of 0.245. For the same molecule, the relative viability ([9]; first compound 0.08 µM) was 0.918, the relative viability ([9]; first compound 0.253 µM) was 0.955 and the relative viability ([9]; first compound 0.8 µM) was 0.9. It also gave a relative viability ([9]; first compound 2.53 µM) of 0.903, a relative viability ([9]; first compound 8 µM) of 0.9 and a relative viability ([10]; first compound 0.08 µM) of 0.273. For the same molecule, the relative viability ([10]; first compound 0.253 µM) was 0.252, the relative viability ([10]; first compound 0.8 µM) was 0.162 and the relative viability ([10]; first compound 2.53 µM) was 0.218. For the same molecule, the relative viability ([10]; first compound 8 µM) was 0.208, the relative viability ([11]; first compound 0.08 µM) was 0.263 and the relative viability ([11]; first compound 0.253 µM) was 0.289. It also gave a relative viability ([11]; first compound 0.8 µM) of 0.306, a relative viability ([11]; first compound 2.53 µM) of 0.285 and a relative viability ([11]; first compound 8 µM) of 0.339. For the same molecule, the relative viability ([12]; first compound 0.08 µM) was 0.338, the relative viability ([12]; first compound 0.253 µM) was 0.328 and the relative viability ([12]; first compound 0.8 µM) was 0.25. It also gave a relative viability ([12]; first compound 2.53 µM) of 0.256, a relative viability ([12]; first compound 8 µM) of 0.265 and a relative viability ([13]; first compound 0.08 µM) of 0.975. The relative viability ([13]; first compound 0.253 µM) was 0.982, the relative viability ([13]; first compound 0.8 µM) was 0.946 and the relative viability ([13]; first compound 2.53 µM) was 0.925. For the same molecule, the relative viability ([13]; first compound 8 µM) was 0.859, the relative viability ([14]; first compound 0.08 µM) was 0.525 and the relative viability ([14]; first compound 0.253 µM) was 0.404. The relative viability ([14]; first compound 0.8 µM) was 0.443, the relative viability ([14]; first compound 2.53 µM) was 0.558 and the relative viability ([14]; first compound 8 µM) was 0.539. For the same molecule, the relative viability ([15]; first compound 0.08 µM) was 0.517, the relative viability ([15]; first compound 0.253 µM) was 0.505 and the relative viability ([15]; first compound 0.8 µM) was 0.511. For the same molecule, the relative viability ([15]; first compound 2.53 µM) was 0.506, the relative viability ([15]; first compound 8 µM) was 0.495 and the relative viability ([16]; first compound 0.08 µM) was 0.422. It also gave a relative viability ([16]; first compound 0.253 µM) of 0.318, a relative viability ([16]; first compound 0.8 µM) of 0.249 and a relative viability ([16]; first compound 2.53 µM) of 0.214. It also gave a relative viability ([16]; first compound 8 µM) of 0.146, a relative viability ([17]; first compound 0.08 µM) of 0.396 and a relative viability ([17]; first compound 0.253 µM) of 0.313. The relative viability ([17]; first compound 0.8 µM) was 0.331, the relative viability ([17]; first compound 2.53 µM) was 0.313 and the relative viability ([17]; first compound 8 µM) was 0.291. It also gave a relative viability ([18]; first compound 0.08 µM) of 0.454, a relative viability ([18]; first compound 0.253 µM) of 0.525 and a relative viability ([18]; first compound 0.8 µM) of 0.435. The relative viability ([18]; first compound 2.53 µM) was 0.445, the relative viability ([18]; first compound 8 µM) was 0.553 and the relative viability ([19]; first compound 0.08 µM) was 0.309. It also gave a relative viability ([19]; first compound 0.253 µM) of 0.308, a relative viability ([19]; first compound 0.8 µM) of 0.328 and a relative viability ([19]; first compound 2.53 µM) of 0.329. The relative viability ([19]; first compound 8 µM) was 0.333, the relative viability ([20]; first compound 0.08 µM) was 0.202 and the relative viability ([20]; first compound 0.253 µM) was 0.307. The relative viability ([20]; first compound 0.8 µM) was 0.178, the relative viability ([20]; first compound 2.53 µM) was 0.226 and the relative viability ([20]; first compound 8 µM) was 0.188. It also gave a relative viability ([21]; first compound 0.08 µM) of 0.451, a relative viability ([21]; first compound 0.253 µM) of 0.46 and a relative viability ([21]; first compound 0.8 µM) of 0.428. It also gave a relative viability ([21]; first compound 2.53 µM) of 0.444, a relative viability ([21]; first compound 8 µM) of 0.489 and a relative viability ([22]; first compound 0.08 µM) of 0.432. It also gave a relative viability ([22]; first compound 0.253 µM) of 0.418, a relative viability ([22]; first compound 0.8 µM) of 0.463 and a relative viability ([22]; first compound 2.53 µM) of 0.455. For the same molecule, the relative viability ([22]; first compound 8 µM) was 0.407, the relative viability ([23]; first compound 0.08 µM) was 0.373 and the relative viability ([23]; first compound 0.253 µM) was 0.321. For the same molecule, the relative viability ([23]; first compound 0.8 µM) was 0.369, the relative viability ([23]; first compound 2.53 µM) was 0.363 and the relative viability ([23]; first compound 8 µM) was 0.365.
